The source of these data is ChEMBL document CHEMBL2375296, “BCR-ABL tyrosine kinase inhibitor pharmacophore model derived from a series of phenylaminopyrimidine-based (PAP) derivatives” (Bioorg Med Chem Lett, 2013).

SMILES strings stand for the structures.

For this test, the target named is Bcr/Abl fusion protein (Homo sapiens, UniProt P00519). Briefly: Inhibition of BCR-ABL kinase (unknown origin). Format: protein assay.
Sequence of Bcr/Abl fusion protein (P00519 whole entry, the tested form may be a part): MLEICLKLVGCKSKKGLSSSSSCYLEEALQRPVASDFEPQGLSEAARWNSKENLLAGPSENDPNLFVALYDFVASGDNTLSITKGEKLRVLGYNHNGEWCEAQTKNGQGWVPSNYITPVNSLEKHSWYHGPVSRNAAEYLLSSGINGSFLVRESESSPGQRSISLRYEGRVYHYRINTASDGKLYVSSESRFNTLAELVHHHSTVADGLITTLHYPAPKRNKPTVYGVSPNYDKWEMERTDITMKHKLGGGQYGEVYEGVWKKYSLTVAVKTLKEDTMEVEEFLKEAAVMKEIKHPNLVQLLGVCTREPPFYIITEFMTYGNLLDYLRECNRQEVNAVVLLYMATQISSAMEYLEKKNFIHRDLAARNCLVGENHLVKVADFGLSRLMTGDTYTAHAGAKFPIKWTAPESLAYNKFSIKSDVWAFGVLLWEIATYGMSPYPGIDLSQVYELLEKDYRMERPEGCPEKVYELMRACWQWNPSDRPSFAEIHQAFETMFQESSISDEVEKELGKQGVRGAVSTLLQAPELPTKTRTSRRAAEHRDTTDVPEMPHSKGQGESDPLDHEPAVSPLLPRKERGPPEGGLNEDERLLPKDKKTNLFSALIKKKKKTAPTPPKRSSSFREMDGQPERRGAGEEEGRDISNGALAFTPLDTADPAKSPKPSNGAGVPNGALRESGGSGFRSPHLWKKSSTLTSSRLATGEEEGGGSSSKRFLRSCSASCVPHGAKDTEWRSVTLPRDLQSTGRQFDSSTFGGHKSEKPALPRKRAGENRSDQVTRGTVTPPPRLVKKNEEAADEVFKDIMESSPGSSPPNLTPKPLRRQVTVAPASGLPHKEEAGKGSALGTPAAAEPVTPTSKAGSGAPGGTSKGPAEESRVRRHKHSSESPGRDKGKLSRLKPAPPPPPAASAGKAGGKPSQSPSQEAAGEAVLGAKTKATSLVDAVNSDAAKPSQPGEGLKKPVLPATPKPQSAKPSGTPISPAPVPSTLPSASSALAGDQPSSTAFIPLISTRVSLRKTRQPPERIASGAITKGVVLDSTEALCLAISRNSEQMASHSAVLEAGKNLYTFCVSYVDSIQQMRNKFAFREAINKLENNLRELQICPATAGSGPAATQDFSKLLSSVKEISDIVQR
Sequence of Bcr/Abl fusion protein (P11274 whole entry, further chain, the tested form may be a part): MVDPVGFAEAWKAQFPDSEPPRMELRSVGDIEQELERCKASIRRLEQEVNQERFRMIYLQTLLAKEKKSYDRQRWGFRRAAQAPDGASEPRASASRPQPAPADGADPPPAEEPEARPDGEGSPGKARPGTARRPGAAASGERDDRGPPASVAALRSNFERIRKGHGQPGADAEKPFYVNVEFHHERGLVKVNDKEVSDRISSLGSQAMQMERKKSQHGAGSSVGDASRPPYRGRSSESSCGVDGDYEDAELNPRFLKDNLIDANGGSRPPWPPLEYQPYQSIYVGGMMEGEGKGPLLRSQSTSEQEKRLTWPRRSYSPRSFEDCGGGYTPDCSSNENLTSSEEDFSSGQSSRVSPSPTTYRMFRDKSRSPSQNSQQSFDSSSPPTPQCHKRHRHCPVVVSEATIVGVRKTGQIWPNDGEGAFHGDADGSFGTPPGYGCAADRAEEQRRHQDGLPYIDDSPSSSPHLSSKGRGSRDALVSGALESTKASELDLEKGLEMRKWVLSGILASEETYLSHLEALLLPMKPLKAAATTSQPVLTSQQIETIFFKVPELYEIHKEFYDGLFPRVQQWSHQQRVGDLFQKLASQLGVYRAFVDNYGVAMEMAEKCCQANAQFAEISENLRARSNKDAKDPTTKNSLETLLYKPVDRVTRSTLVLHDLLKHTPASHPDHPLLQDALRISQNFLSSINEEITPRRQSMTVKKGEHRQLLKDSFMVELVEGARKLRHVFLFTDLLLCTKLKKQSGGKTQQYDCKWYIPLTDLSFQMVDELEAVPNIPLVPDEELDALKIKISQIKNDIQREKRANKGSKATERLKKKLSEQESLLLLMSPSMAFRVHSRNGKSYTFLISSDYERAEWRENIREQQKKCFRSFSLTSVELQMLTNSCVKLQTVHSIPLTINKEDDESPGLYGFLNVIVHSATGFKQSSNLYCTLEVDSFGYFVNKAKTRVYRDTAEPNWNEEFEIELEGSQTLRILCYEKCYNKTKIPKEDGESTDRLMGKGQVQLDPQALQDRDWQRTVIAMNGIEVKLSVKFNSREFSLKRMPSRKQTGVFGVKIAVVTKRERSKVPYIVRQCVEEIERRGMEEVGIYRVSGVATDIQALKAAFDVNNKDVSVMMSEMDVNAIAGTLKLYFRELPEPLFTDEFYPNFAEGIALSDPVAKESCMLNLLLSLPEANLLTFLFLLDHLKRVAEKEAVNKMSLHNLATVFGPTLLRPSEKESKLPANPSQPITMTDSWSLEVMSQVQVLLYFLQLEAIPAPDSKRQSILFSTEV
As to `Cc1ccc(NC(=O)c2ccc(/N=N/N(C)C)cc2)cc1Nc1nccc(-c2cccnc2)n1`, the IC50 – broadly, the concentration at which inhibition is half-maximal – was 2190 nM.

As for `Nc1ccc(C(=O)Nc2cccc(Nc3nccc(-c4cccnc4)n3)c2)cc1`, the IC50 was 9770 nM.

`Cc1ccc(NC(=O)c2ccc(/N=N/N(C)CCCl)cc2)cc1Nc1nccc(-c2cccnc2)n1` showed an IC50 of 17400 nM.

On to `Cc1ccc(NC(=O)c2ccc(CN3CCC(N(C)C)C3)c(C(F)(F)F)c2)cc1Nc1nccc(-c2cncnc2)n1` (stereo not drawn), for which the IC50 was 3.98 nM. Against the preceding compound, the IC50 is about 4400-fold lower.

Compound `Cc1ccc(NC(=O)Nc2ccc(N(C)C)cc2)cc1Nc1nccc(-c2cccnc2)n1` had an IC50 of 10000 nM.

On to `Cc1ccc(NC(=O)N2CCN(C)CC2)cc1Nc1nccc(-c2cccnc2)n1`, for which inhibition was half-maximal at 5010 nM (IC50). Against the preceding compound, the IC50 is about 2-fold lower.

Regarding `CCN(CC)c1ccc(NC(=O)Nc2ccc(C)c(Nc3nccc(-c4cccnc4)n3)c2)cc1`, the IC50 was 10000 nM.

In turn, `Cc1ccc(NC(=O)c2ccc3ccccc3c2)cc1Nc1nccc(-c2cccnc2)n1` showed a half-maximal inhibitory concentration (IC50) of 200 nM. This IC50 is about 50-fold lower than that of the compound before.

As to `Cc1ccc(NC(=O)c2ccc(CN3CCN(C)CC3)c(I)c2)cc1Nc1nccc(-c2cccnc2)n1`, the IC50 was 10 nM.

For `Cc1ccc(NC(=O)c2ccc(CN3CC(N(C)C)C3)c(C(F)(F)F)c2)cc1Nc1nccc(-c2cncnc2)n1`, the IC50 was 17 nM.

For `Cc1ccc(NC(=O)c2ccccc2)cc1Nc1nccc(-c2cccnc2)n1`, the IC50 was 398 nM.

`Cc1ccc(NC(=O)c2ccc(Cl)cc2)cc1Nc1nccc(-c2cccnc2)n1`: the half-maximal inhibitory concentration (IC50) was 794 nM.

The compound `Cc1ccc(NC(=O)c2ccc(CN3CCC(CN(C)C)C3)c(C(F)(F)F)c2)cc1Nc1nccc(-c2cncnc2)n1` (stereo not drawn) gave an IC50 of 11 nM.

Turning to `CC(C)(NC(=O)c1cc2c(NC(=O)c3ccc(CN4CCCCC4)cc3)n[nH]c2s1)c1ccccc1`, half-maximal inhibition (IC50) was put at 20.9 nM. Against the preceding compound, the IC50 is about 1.9-fold higher.

`CN1CCN(c2ccc(C(=O)Nc3n[nH]c4sc(C(=O)NC(C)(C)c5ccccc5)cc34)cc2)CC1` showed an IC50 of 4.07 nM.

For the compound `Cc1ccc(NC(=O)NCc2cccc(Cl)c2)cc1Nc1nccc(-c2cccnc2)n1`, the midpoint of inhibition, the IC50, lay at 1000 nM.

Turning to `Cc1ccc(-c2ccnc(Nc3cccc(OC(F)(F)C(F)F)c3)n2)cc1`, the IC50 is 50100 nM. Compared with the last compound, the IC50 is about 50-fold higher.

Take `COCCN/N=N/c1cccc(Nc2cc(-c3cccnc3)ncn2)c1`: 5370 nM corresponded to half-maximal inhibition (IC50).

`c1cc(CCN2CCOCC2)cc(Nc2nccc(-c3cccnc3)n2)c1` showed an IC50 of 10000 nM.

Regarding `COCCN(C)/N=N/c1ccc(C(=O)Nc2cccc(Nc3nccc(-c4cccnc4)n3)c2)cc1`, the concentration for half-maximal inhibition (IC50) is 33200 nM.

`NCCCCNC(=O)c1cccc(Nc2nccc(-c3cccnc3)n2)c1`: the IC50 is 398 nM.

Compound `O=C(Nc1cccc(Nc2nccc(-c3cccnc3)n2)c1)C1=CC=CCC1=S` gave an IC50 of 302 nM.

For the compound `CCCCCCC(=O)Nc1cccc(Nc2nccc(-c3cccnc3)n2)c1`, the IC50 was 200 nM.

Consider `O=C(Nc1cccc(Nc2nccc(-c3cccnc3)n2)c1)c1ccccc1`, for which the midpoint of inhibition, the IC50, lay at 398 nM.

As for `Cc1ccc(N)cc1Nc1nccc(-c2cccnc2)n1`, the IC50 is 1510 nM.

The compound `c1cncc(-c2ccnc(Nc3cccc(-n4ccnc4)c3)n2)c1` showed an IC50 of 3310 nM.

Take `O=C(Nc1cccc(Nc2nccc(-c3cccnc3)n2)c1)c1ccccn1`: it took 3800 nM to reach half-maximal inhibition (IC50).

`NCCCn1ccc2c(-c3ccnc(Nc4cccc(OC(F)(F)C(F)F)c4)n3)cccc21`: the IC50 is 347 nM.

Compound `COc1ccccc1C(=O)Nc1cccc(Nc2nccc(-c3cccnc3)n2)c1` showed an IC50 of 1910 nM.

For the compound `Clc1cccc(Nc2nccc(-c3cccnc3)n2)c1`, the IC50 was 1510 nM.

As for `Cc1ccc(NC(=O)c2ccc(N)cc2)cc1Nc1nccc(-c2cccnc2)n1`, half-maximal inhibition (IC50) was put at 67600 nM. Against the preceding compound, the IC50 is about 45-fold higher.

Turning to `Cc1cccc(Nc2nccc(-c3cccnc3)n2)c1`, the IC50 is 1820 nM.

The compound `Cc1ccc(NC(=O)NCCN2CCCC2)cc1Nc1nccc(-c2cccnc2)n1` gave an IC50 of 8910 nM.

Consider `CCN(CC)c1cccc(NC(=O)Nc2ccc(C)c(Nc3nccc(-c4cccnc4)n3)c2)c1`, for which the IC50 is 1000 nM.

The compound `Cc1ccc(NC(=O)c2ccc(CN3CCN(C)CC3)c(Cl)c2)cc1Nc1nccc(-c2cccnc2)n1` showed an IC50 of 10 nM.

As to `COc1ccccc1C(=O)Nc1ccc(C)c(Nc2nccc(-c3cccnc3)n2)c1`, the IC50 is 794 nM.

As for `O=C(Nc1cccc(Nc2nccc(-c3cccnc3)n2)c1)c1cccnc1`, half-maximal inhibition (IC50) required 151 nM.

The compound `O=C(Nc1cccc(Nc2nccc(-c3cccnc3)n2)c1)c1ccc(F)cc1` showed an IC50 of 200 nM.

Regarding `CC(=O)Nc1ccc(C)c(Nc2nccc(-c3cccnc3)n2)c1`, the IC50 was 5750 nM.

On to `Cc1ccc(NC(=O)Nc2cccc(N(C)C)c2)cc1Nc1nccc(-c2cccnc2)n1`, for which half-maximal inhibition (IC50) was put at 575 nM.

The compound `CCC(=O)Nc1ccc(Sc2nc(Nc3cc(C)[nH]n3)cc(N3CCN(C)CC3)n2)cc1` gave an IC50 of 603 nM.

The compound `CN1CCN(c2ccc(C(=O)Nc3[nH]nc4c3CN(C(=O)Cc3cccs3)C4)cc2)CC1` had an IC50 of 64.6 nM. Against the preceding compound, the IC50 is about 9.3-fold lower.

As for `FC(F)C(F)(F)Oc1cccc(Nc2nccc(-c3c[nH]c4ccccc34)n2)c1`, inhibition was half-maximal at 372 nM (IC50).

With `O=C(Nc1cccc(Nc2nccc(-c3cccnc3)n2)c1)c1ccncc1`, the IC50 was 501 nM. The IC50 values of the last two compounds are within 1.5-fold of each other.

Regarding `FC(F)C(F)(F)Oc1cccc(Nc2nccc(-c3ccncc3)n2)c1`, the IC50 was 100000 nM. Compared with the last compound, the IC50 is about 200-fold higher.

The compound `O=[N+]([O-])c1cccc(Nc2nccc(-c3ccncc3)n2)c1` gave a concentration for half-maximal inhibition (IC50) of 61700 nM. This IC50 lies about 1.6-fold lower than the previous one.

Consider `O=C(O)c1ccccc1C(=O)Nc1cccc(Nc2nccc(-c3cccnc3)n2)c1`, for which it took 2000 nM to reach half-maximal inhibition (IC50).

`O=[N+]([O-])c1cccc(Nc2nccc(-c3cccnc3)n2)c1` had an IC50 of 33900 nM.

Compound `COC(=O)c1cccc(Nc2nccc(-c3cccnc3)n2)c1` showed an IC50 of 5130 nM. This IC50 is about 6.6-fold lower than that of the compound before.

With `CN1CCN(Cc2ccc(C(=O)Nc3cccc(Nc4nccc(-c5cccnc5)n4)c3)cc2)CC1`, the IC50 is 100 nM.

Regarding `Nc1cccc(Nc2nccc(-c3ccncc3)n2)c1`, the IC50 was 603 nM.

Compound `Nc1cccc(Nc2nccc(-c3cccnc3)n2)c1` gave an IC50 of 708 nM.

Turning to `O=C(O)c1cccc(Nc2nccc(-c3cccnc3)n2)c1`, the IC50 is 7940 nM.

In turn, `O=C(Nc1cccc(Nc2nccc(-c3cccnc3)n2)c1)C1CCCCC1` gave an IC50 of 447 nM.

Compound `c1cc(Nc2nccc(-c3cccnc3)n2)cc(OCCn2ccnc2)c1` had an IC50 of 1000 nM.

Take `N#Cc1ccc(C(=O)Nc2cccc(Nc3nccc(-c4cccnc4)n3)c2)cc1`: the IC50 is 1290 nM. The IC50 values of the last two compounds are within 1.5-fold of each other.

In the case of `Cc1ccc(C(=O)Nc2cccc(Nc3nccc(-c4cccnc4)n3)c2)cc1`, the IC50 is 1000 nM.

`O=[N+]([O-])c1cccc(Nc2nccc(-c3ccccn3)n2)c1` showed an IC50 of 1200 nM.
